The values that follow come from ChEMBL document CHEMBL1641483, “Biological study of a somatostatin mimetic based on the 1-deoxynojrimycin scaffold” (Bioorg Med Chem Lett, 2011).

In general, Ki refers to a measure of affinity in units of concentration, obtained from inhibition or displacement. For orientation: IC50 means the midpoint of a concentration-inhibition curve.

Assay [1] has as its target Somatostatin receptor type 4 (Homo sapiens, UniProt P31391). The assay can be described thus: Binding affinity to human SSTR4.
Assay [2] deals with HUVEC. Put plainly: Antiangiogenic activity in HUVEC assessed as partial inhibition of tube formation at 20 uM. Format: functional, cell-based. The settings on record: Homo sapiens.
The target in assay [3] is Somatostatin receptor type 5 (Homo sapiens, UniProt P35346). Put plainly: Binding affinity to human SSTR5.
The test system of assay [4] is HUVEC. Put plainly: Cytotoxicity against HUVEC after 72 hrs by MTT assay. Format: cell-based. The note with it: Homo sapiens. (Tetrazolium dyes change colour on reduction, which living cells bring about.)
Assay [5] concerns HUVEC. The assay can be described thus: Antiangiogenic activity in HUVEC assessed as complete inhibition of tube formation at 40 uM. Format: functional, cell-based. The note with it: Homo sapiens.
The target of another assay is Tubulin (Homo sapiens) (UniProt P68371+Q9H4B7+P0DPH7+P68366+Q13509+Q71U36+P04350+Q3ZCM7+P07437+P68363+Q9BQE3+Q6PEY2+Q13885+Q9BVA1+Q9BUF5). The assay can be described thus: Inhibition of tubulin polymerization in HUVEC at 20 uM by fluorescence staining. Format: cell-based.
The test system of assay [6] is HUVEC. Put plainly: Inhibition of HUVEC migration at 20 uM by scratch-wound healing assay. Format: functional, cell-based. The note with it: Homo sapiens.
Assay [7] relates to HUVEC. The assay can be described thus: Induction of apoptosis in HUVEC assessed as change in mitochondrial membrane potential at 10 to 20 uM after 48 hrs by JC1 staining. Format: functional, cell-based. The settings on record: Homo sapiens.
The subject of assay [8] is HUVEC. The assay can be described thus: Induction of cell cycle arrest in HUVEC assessed as accumulation at G1 phase at 20 uM after 24 hrs by flow cytometry. Format: functional, Homo sapiens. On the technique in general: In flow cytometry, cells or beads pass a laser one at a time.
For assay [9], the system named is HUVEC. The assay can be described thus: Induction of cell cycle arrest in HUVEC assessed as accumulation at S phase at 20 uM after 24 hrs by flow cytometry. Format: functional, Homo sapiens.
Assay [10] deals with HUVEC. The assay can be described thus: Induction of cell cycle arrest in HUVEC assessed as accumulation at G2/M phase at 20 uM after 24 hrs by flow cytometry. Format: functional, Homo sapiens.
In assay [11] the test system is HUVEC. The assay can be described thus: Induction of apoptosis in HUVEC at 10 to 20 uM after 48 hrs by fluorescence assay. Format: functional, cell-based. The note with it: Homo sapiens.

Structures are written as SMILES. The source made the active and inactive calls. The rule behind the calls is not given here.

Somatostatin receptor type 4, sequence (P31391 whole entry): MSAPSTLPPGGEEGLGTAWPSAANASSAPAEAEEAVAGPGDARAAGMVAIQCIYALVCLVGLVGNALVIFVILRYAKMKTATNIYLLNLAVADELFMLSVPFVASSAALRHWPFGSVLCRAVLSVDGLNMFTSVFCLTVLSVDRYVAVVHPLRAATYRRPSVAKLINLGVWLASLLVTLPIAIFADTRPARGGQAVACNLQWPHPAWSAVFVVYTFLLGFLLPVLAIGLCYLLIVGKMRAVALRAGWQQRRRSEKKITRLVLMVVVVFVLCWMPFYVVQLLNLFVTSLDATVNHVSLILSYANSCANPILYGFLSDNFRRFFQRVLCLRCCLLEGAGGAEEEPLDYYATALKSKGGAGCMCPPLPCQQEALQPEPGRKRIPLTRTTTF
Somatostatin receptor type 5, sequence (P35346 whole entry): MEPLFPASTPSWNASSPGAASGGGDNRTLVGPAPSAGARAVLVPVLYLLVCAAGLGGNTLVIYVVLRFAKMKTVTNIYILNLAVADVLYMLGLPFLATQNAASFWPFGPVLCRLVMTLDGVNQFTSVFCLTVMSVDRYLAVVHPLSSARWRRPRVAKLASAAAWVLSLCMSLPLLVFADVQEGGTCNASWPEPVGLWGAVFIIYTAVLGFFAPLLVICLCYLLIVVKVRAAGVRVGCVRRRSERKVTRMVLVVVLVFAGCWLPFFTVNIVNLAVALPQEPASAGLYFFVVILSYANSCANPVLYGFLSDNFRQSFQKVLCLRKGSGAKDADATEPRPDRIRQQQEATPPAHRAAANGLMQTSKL

With `NCCCCCOC[C@@H]1[C@@H](OCc2ccccc2)[C@H](OCc2ccccc2)[C@@H](OCc2ccccc2)CN1CCc1c[nH]c2ccccc12`, the Ki in assay [1] is 4.4 µM; in assay [3], 5 µM. In addition, the inhibition entry with HUVEC [2], in the assay on HUVEC [5], at Tubulin (Homo sapiens) and in the assay with HUVEC [6] was “Active” in each case. In the assay on HUVEC [4], this molecule yielded an IC50 of 12.6 µM. Moreover, the outcome in the assay with HUVEC [7] and with HUVEC [11] was Active. Moreover, the values for the Activity with HUVEC [8], with HUVEC [9] and with HUVEC [10] were 70.39%, 13.81% and 16.27%, respectively.
